Test results: patent publication US20260284076A1, “TESTOSTERONE AND DIFLUOROMETHYLORNITHINE COMBINATION THERAPY FOR PROSTATE CANCER” (The Johns Hopkins University, priority 2023, published 2026)
Like-named read-outs stand apart in the source and are kept apart here.

Assays:
[1] = tested on: CRPC; settings: post-abiraterone, pre-chemotherapy setting; cited from earlier work
[2] = tested on: asymptomatic patients with CRPC progressing on Abi; assay: TRANSFORMER randomized Phase II study, BAT vs. Enza with crossover; type: in vivo, human
Protocol: The TRANSFORMER study (NCT02286921) was a DOD-sponsored randomized Phase II study designed to compare the efficacy of BAT vs. Enza in asymptomatic patients with CRPC progressing on Abi, FIG. 19A (2). The study was conducted at 17 academic centers across the US. The study was coordinated by the Prostate Cancer Disease Group clinical research team at Johns Hopkins, who performed regulatory oversight, study/site monitoring, and data analyses. From 2015-2018, 195 patients underwent 1:1 randomization to either standard dose Enza (n=101) or BAT (n=94) at 400 mg IM every 28 days. The primary endpoint was clinical/radiographic PFS. At time of progression, patients were given the option to crossover to the alternate therapy. The trial was designed to show a 50% improvement in the primary endpoint for BAT vs. Enza. […] Objective response was 24.4% for BAT and 4.2% for Enza (p=0.067). Best PSA50 was 26.4% for BAT and 25.5% for Enza (p=0.697).
At time of progression, 46 (49%) of patients on the Enza arm crossed over to receive BAT and 34 (33.7%) crossed over from BAT to receive Enza and were available for analysis. Remarkably, the PSAso response for patients who received Enza after BAT was 72.7% compared to 25.5% for patients receiving Enza immediately after Abi, FIG. 19D. Objective response in the Enza post-BAT patients was 28.6% compared to 4.2% post-Abi, FIG. 19B. […] The logical extension of these findings and the hypothesis of this proposal is that patients are likely to respond again to further repeat cycles of BAT and Enza, but this treatment strategy has yet to be explored in the clinical trial setting.

[3] = tested on: human T lymphocytes; settings: CD3/CD28-stimulated cells, 24 hours, 5 donors
Protocol: Protein expression of ODC and AR by western blot of human T cells cultured for 24 hours with vehicle control (EtOH 0.1%), SPA, or enzalutamide (ENZA; 10 μM) in the presence of no stimulation or CD3- and CD28-stimulation with dynabeads. Vinculin is used a loading control. FIG. 22J. Quantification of protein expression of ODC by western blot as per (FIG. 22I), displaying data from independent experiments of 5 different donors with indicated sex. P values by unpaired 2-tailed t test;
To assess whether AR regulates expression of polyamine synthesis enzymes in cells beyond prostate, we isolated human T lymphocytes from peripheral blood of 5 donors, treated unstimulated or CD3/CD28-stimulated cells with vehicle control, SPA, or the AR inhibitor enzalutamide for 24 hours, and measured ODC.

[4] = tested on: metastatic CRPC, pre-chemotherapy setting; settings: cited from earlier work
[5] = tested on: chronically castrated patients with rising PSA and CRPC; assay: Pilot study of BAT with oral etoposide, then second line therapy post-BAT; type: in vivo, human
Excerpt: Based on the preclinical results and potential mechanisms for growth inhibition that include androgen-induced double strand breaks and stabilization of AR preventing relicensing, we have conducted a pilot study evaluating the efficacy and safety of pharmacologic doses of testosterone to produce high dose T levels in conjunction with oral etoposide in chronically castrated patients with rising PSA and CRPC (37). Patients who had been continuously castrate for more than one year with minimal metastatic disease burden (≤5 total bone metastases and ≤10 total sites of metastases) and/or rising PSA were eligible. To achieve rapid cycling between high dose and near castrate serum T (i.e., BAT) patients received intramuscular injection of 400 mg testosterone cypionate every 28 days. For the first 3 cycles of therapy patients received BAT plus oral etoposide 100 mg po/day days 1-14 of a 28-day cycle. After 3 cycles PSA response and objective response were assessed. Those patients with a PSA that was declining from peak levels and no objective evidence of disease progression or worsening pain were continued on therapy. Given the toxicity associated with etoposide and the lack of clinical response in an earlier trial (38), patients who responded after 3 cycles of testosterone plus etoposide were continued on testosterone alone based on protocol amendment.

[6] = tested on: patients with CRPC progressing on Enza (Cohort A) or Abi (Cohort B); type: in vivo, human
Excerpt: The RESTORE study (NCT02090114) was an NIH sponsored Phase II study designed to assess the safety and efficacy of BAT in patients (n=30 per cohort) with CRPC progressing on Enza (Cohort A) or Abi (Cohort B), FIG. 18A (34,39). The primary endpoint of the first part of the study was to assess PSA response to BAT. Secondary endpoints included objective response, safety, and quality of life. The second part of the study was to determine in BAT could re-sensitize patients to repeat exposure to second line therapy that patients were progressing on prior to receiving BAT. Thus, patients progressing on Enza were re-exposed to Enza after BAT and similarly for Abi. Both arms of this study met the primary endpoint. PSA50 response to BAT was 30% in patient's post-Enza and 18% post-Abi, FIG. 18B. […] Overall duration of response to BAT and duration of response to re-exposure was longer in the post-Enza vs. post-Abi cohort. The PSAso response to re-exposure to Enza was 71% vs. only 21% for patients re-exposed to Abi, FIG. 19B (7). A third cohort was later added (Cohort C) for patients progressing on ADT alone. Overall, 90 patients were treated on this study over a 4-year period (2014-2018).

[7] = tested on: CRPC post docetaxel; settings: post-docetaxel setting; cited from earlier work
[8] = tested on: MYC; assay: MYC expression in metastatic tumor biopsies before and after BAT; type: in vivo, human; settings: responding patients
Excerpt: FIG. 5A, FIG. 5B, FIG. 5C, FIG. 5D, and FIG. 5E show: FIG. 5A, MYC expression by IHC in a metastatic tumor biopsy from a patient before and after 3 months of BAT. FIG. 5B, Quantification of MYC protein expression from metastatic tumor biopsies from patients before and after 3 months of BAT color-coded by response (non-responder NR; responder R). […] Vinculin was used as a loading control. FIG. 5D, Principal component analysis of RNA and ATAC sequencing of LNCaP cells treated for 5 days with R1881 10 nM (SPA). […] Vinculin was used as a loading control;

[9] = tested on: patients with CRPC; assay: BAT clinical studies, overall experience; type: in vivo, human
Excerpt: A major driver of castration resistance is the adaptive upregulation of AR activity, often through AR protein overexpression, to a sufficient level to allow for renewed growth. This marked overexpression of AR makes PCa cells once again vulnerable to hormone shock, achieved not through further androgen blockade, but through exposure to supraphysiologic levels of androgen (SPA). Based on extensive preclinical studies, we developed Bipolar Androgen Therapy (BAT), which involves cyclic administration of SPA as treatment for CRPC.
Inhibition of signaling through the androgen receptor (AR) is the mainstay of treatment of advanced PCa. […] This phase of the disease is associated with poor prognosis and limited therapeutic options. The majority of PCas are addicted to signaling through AR and adaptively upregulate AR-activity, via mechanisms such as AR overexpression, to permit sustained AR signaling despite castration and AR inhibitors (1,2). Studies dating back nearly thirty years indicate that high expression of AR induced by prolonged castration becomes a vulnerability of CRPC cells in vitro and in mouse xenografts to supraphysiological androgen (SPA), which induces cell death and growth arrest in this context (3,4). On the basis of these studies, we developed an innovative treatment called Bipolar Androgen Therapy (BAT) for patients with CRPC, in which SPA is administered intermittently to result in cycling of serum testosterone from supraphysiological to near castrate levels. This rapid cycling is intended to reduce adaptation AR regulation associated with chronic exposure to high or low levels of testosterone, while simultaneously targeting the spectrum of AR expression present in heterogeneous CRPC tumors (5). We have now tested BAT in more than 350 patients with CRPC (6-10).

[10] = tested on: patients with CRPC; assay: Plasma putrescine in patients treated with BAT (COMBAT trial); settings: human, in vivo
Excerpt: Vinculin was used as a loading control. FIG. 2F, Polyamine synthesis pathway.

CNC(=O)c1ccc(N2C(=S)N(c3ccc(C#N)c(C(F)(F)F)c3)C(=O)C2(C)C)cc1F [Enzalutamide, 4-{3-[4-cyano-3-(trifluoromethyl)phenyl]-5,5dimethyl-4-oxo-2-sulfanylideneimidazolidin-1-yl}-2-fluoro-N-methylbenzamide]
median rPFS [1]: ≤ 6 months
PSA50 response ([2]; Enza after BAT (crossover), listed as Enza): 72.7%
PSA50 response ([2]; Enza after BAT (crossover), listed as enzalutamide): 78%
Time to PSA progression ([2]; Enza immediately post-Abi, without prior BAT): 3.8 months
Objective response ([2]; Enza post-BAT): 28.6%
Time to PSA progression ([2]; Enza post-BAT): 10.9 months
overall survival ([2]; enzalutamide after prior BAT): 37 months
overall survival ([2]; enzalutamide without prior BAT): 29 months
PSA50 response ([2]; initial treatment immediately after Abi, no prior crossover, listed as Enza): 25.5%
PSA50 response ([2]; initial treatment immediately after Abi, no prior crossover, listed as enzalutamide): 25%
fold increase in time to PSA progression on Enza ([2]; post-BAT vs immediately post-Abi): ~3 fold
clinical/radiographic PFS ([2]; randomized arms): 5.72 m
Objective response ([2]; randomized arms, post-Abi): 4.2%
ODC protein [3]: decreased ODC in all donors
hazard ratio, overall survival vs placebo ([4]; 95% CI 0.60 to 0.84): 0.71
median overall survival ([4]; PREVAIL, enzalutamide group): 32.4 months
>50% decline PSA (%) ([4]; PREVAIL): 78%
PSA PFS ([4]; PREVAIL): 11.2
TIP (m) ([4]; PREVAIL): 20 m
patients with >50% PSA decline on second line therapy ([5]; post-BAT): 3/4
PSA decline upon re-challenge ([5]; post-BAT, agent previously progressed on): 53.2%
PSA50 response to re-exposure (re-challenge) post-BAT ([6]; re-exposed to agent progressed on before BAT): 71%
improvement in survival [7]: approximately 5 months

C[C@]12CC[C@H]3[C@@H](CCC4=CC(=O)CC[C@@]43C)[C@@H]1CC[C@@H]2OC(=O)CCC1CCCC1 [BAT, androst-4-en-3-one, 17-(3-cyclopentyl-1-oxopropoxy)-, (17ß)-]
PSA50 response ([2]; BAT after Enza (crossover)): 22.2%
PSA50 response ([2]; initial treatment immediately after Abi, no prior crossover): 26.4%
clinical/radiographic PFS ([2]; randomized arms): 5.62 m
Objective response ([2]; randomized arms, post-Abi): 24.4%
MYC expression in tumor biopsies [8]: decreased
subjects experiencing an AE ([5]; BAT monotherapy phase): four
patients developing new bone metastases ([5]; completing 3 months of therapy): None of the 14 patients
AEs during BAT monotherapy phase ([5]; in vivo): rare and low grade
new pain, skeletal events or urinary obstruction due to prostate cancer ([5]; in vivo): None of the 14 patients
patients with decline in PSA from baseline ([5]; in vivo): Seven of fourteen
PSA decline/response and objective responses, patients ([5]; patients who completed three cycles): 50%
median time to PSA progression ([5]; seven patients with PSA decline, range 95 to 454 days): 221 days
complete response (CR) ([5]; ten RECIST-evaluable subjects): 10%
partial responses (PRs) ([5]; ten RECIST-evaluable subjects): 40%
stable disease ([5]; ten RECIST-evaluable subjects, median follow up 91 days): 30%
progressive disease (PD) ([5]; ten subjects with RECIST-evaluable soft tissue metastases): 20%
QoL surveys (FACIT Fatigue, IIEF, SF-36 subscales) ([6]; BAT compared to baseline on ADT): significant improvement
Adverse events to BAT, grade ([6]; in vivo): primarily Grade 1-2
patients with grade 3 hypertension attributed to BAT ([6]; in vivo): 3 patients
PSA50 response to BAT ([6]; post-Abi (Cohort B)): 18%
PSA50 response to BAT ([6]; post-Enza (Cohort A)): 30%
PSA50 response rate ([9]; 56 days of BAT monotherapy, mCRPC): approximately 25%
PSA50 response rate ([9]; 64 days of BAT monotherapy, mCRPC): approximately 25%
PSA/objective (biochemical and objective) response ([9]; human, in vivo): 20-30%
quality of life ([9]; human, in vivo): improved quality of life
objective response rate ([9]; mCRPC, monotherapy): approximately 30%
plasma putrescine abundance [10]: increased
